{
  "source": "ChEMBL document CHEMBL5465560",
  "about": "“Selectivity Literature for EUbOPEN Chemogenomic Library” (2024)",
  "key": {"[1]": {"molecular_target": "Protein kinase C delta type (Homo sapiens) (UniProt Q05655)", "sequence (Q05655 whole entry, looked up)": "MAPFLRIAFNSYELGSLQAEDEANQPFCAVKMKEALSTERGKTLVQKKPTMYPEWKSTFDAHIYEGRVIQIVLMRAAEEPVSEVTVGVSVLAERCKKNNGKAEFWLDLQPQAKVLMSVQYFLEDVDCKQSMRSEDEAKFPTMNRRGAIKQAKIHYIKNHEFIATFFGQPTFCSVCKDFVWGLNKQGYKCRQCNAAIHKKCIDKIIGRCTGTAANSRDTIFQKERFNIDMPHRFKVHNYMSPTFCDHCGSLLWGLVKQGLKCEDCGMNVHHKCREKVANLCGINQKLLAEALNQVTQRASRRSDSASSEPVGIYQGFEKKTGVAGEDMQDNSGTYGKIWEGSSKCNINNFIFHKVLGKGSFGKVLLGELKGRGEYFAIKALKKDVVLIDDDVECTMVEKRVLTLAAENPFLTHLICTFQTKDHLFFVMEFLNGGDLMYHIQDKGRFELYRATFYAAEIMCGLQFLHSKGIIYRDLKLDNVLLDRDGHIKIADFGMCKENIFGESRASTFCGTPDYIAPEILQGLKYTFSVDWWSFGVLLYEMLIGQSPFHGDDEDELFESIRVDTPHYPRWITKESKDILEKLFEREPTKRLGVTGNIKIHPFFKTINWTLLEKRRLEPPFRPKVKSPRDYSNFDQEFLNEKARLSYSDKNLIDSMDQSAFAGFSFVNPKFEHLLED", "test": "Selectivity interaction (KinomeScan (DiscoverX)) EUB0000045b PRKCD"}, "[2]": {"molecular_target": "Acetylcholine receptor subunit alpha (Homo sapiens, UniProt P02708)", "sequence (P02708 whole entry)": "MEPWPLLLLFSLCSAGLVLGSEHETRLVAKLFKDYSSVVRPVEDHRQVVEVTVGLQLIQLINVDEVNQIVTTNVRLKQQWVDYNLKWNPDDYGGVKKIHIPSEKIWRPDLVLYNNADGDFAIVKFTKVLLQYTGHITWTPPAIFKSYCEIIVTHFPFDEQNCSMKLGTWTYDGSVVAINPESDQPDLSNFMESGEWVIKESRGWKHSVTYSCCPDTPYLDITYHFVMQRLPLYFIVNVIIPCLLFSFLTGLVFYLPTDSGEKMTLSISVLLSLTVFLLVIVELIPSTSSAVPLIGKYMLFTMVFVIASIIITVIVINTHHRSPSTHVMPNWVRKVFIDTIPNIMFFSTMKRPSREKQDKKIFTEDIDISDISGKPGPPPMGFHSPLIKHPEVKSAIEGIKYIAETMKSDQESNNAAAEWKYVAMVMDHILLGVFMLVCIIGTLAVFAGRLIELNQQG", "test": "Selectivity interaction (Nicotinic (CNS) Receptor binding in human IMR32 cells ) EUB0000877a CHRNA1", "type": "cell-based, IMR-32"}, "[3]": {"molecular_target": "Serine/threonine-protein kinase Nek4 (Homo sapiens) (UniProt P51957)", "sequence (P51957 whole entry, looked up)": "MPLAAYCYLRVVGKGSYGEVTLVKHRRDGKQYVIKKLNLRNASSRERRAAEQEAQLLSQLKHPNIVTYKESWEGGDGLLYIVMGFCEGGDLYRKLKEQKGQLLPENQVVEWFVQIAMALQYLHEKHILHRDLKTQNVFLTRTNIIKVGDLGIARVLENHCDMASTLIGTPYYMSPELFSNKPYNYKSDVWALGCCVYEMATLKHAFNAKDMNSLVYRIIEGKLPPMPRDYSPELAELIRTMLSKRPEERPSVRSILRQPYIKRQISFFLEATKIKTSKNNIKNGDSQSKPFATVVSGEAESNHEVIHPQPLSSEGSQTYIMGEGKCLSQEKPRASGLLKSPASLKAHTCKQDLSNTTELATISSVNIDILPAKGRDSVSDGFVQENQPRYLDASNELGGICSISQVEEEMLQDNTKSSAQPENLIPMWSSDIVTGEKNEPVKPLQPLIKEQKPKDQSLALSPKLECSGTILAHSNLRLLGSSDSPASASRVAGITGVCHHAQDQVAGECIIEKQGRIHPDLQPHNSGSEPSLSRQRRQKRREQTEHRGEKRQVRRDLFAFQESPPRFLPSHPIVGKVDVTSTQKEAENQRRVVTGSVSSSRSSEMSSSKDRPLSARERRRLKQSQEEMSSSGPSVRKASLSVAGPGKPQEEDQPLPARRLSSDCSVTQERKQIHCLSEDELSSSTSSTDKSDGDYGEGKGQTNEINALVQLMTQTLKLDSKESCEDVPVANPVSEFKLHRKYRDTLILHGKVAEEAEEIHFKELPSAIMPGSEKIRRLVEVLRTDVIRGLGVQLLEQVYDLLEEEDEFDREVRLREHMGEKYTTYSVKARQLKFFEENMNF", "test": "Selectivity interaction (Kinase panel (Invitrogen)) EUB0000639a NEK4", "conditions": "at 200 nM"}, "[4]": {"molecular_target": "Dual specificity mitogen-activated protein kinase kinase 1 (Homo sapiens, UniProt Q02750)", "sequence (Q02750 whole entry)": "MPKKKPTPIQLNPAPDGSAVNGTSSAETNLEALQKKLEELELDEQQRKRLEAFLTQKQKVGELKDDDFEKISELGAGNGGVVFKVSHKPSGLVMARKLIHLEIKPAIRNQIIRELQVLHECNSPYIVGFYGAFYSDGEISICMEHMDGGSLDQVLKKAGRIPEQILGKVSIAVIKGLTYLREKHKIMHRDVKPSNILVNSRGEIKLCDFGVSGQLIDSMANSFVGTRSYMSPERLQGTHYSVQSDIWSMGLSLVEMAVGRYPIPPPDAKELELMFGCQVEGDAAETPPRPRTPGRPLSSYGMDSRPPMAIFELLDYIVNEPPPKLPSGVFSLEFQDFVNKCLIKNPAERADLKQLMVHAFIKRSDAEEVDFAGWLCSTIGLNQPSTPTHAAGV", "test": "Selectivity interaction (Kinase panel (Invitrogen)) EUB0000639a MAP2K1", "conditions": "at 200 nM"}, "[5]": {"molecular_target": "T1, Inhibitor of nuclear factor kappa-B kinase subunit beta (Homo sapiens) (UniProt O14920)", "T1 sequence (whole entry)": "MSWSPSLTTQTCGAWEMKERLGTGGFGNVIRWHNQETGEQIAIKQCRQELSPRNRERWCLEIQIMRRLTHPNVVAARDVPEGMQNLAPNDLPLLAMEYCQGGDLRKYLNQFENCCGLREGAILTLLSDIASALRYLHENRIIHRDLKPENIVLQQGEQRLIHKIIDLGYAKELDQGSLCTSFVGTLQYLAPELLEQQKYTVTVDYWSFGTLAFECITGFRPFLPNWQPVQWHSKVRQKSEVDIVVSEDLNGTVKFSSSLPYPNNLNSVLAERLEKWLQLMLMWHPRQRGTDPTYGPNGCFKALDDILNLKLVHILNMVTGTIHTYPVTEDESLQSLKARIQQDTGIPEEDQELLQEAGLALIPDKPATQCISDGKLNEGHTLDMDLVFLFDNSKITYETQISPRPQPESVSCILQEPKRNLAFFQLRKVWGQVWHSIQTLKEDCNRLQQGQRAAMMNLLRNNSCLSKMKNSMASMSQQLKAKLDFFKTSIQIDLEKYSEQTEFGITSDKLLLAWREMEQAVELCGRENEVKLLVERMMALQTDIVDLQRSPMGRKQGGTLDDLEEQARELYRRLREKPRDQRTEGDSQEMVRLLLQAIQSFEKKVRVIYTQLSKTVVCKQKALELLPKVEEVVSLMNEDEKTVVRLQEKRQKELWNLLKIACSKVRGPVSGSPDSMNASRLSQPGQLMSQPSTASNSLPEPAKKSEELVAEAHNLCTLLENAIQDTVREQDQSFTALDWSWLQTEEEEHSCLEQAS", "test": "Selectivity interaction (ActivX KiNativ screen (kinase selectivity in THP-1 cell lysates)) EUB0000639a IKBKB", "type": "subcellular", "conditions": "lysate"}, "[6]": {"molecular_target": "NT-3 growth factor receptor (Homo sapiens, UniProt Q16288)", "sequence (Q16288 32-839 limits assumed)": "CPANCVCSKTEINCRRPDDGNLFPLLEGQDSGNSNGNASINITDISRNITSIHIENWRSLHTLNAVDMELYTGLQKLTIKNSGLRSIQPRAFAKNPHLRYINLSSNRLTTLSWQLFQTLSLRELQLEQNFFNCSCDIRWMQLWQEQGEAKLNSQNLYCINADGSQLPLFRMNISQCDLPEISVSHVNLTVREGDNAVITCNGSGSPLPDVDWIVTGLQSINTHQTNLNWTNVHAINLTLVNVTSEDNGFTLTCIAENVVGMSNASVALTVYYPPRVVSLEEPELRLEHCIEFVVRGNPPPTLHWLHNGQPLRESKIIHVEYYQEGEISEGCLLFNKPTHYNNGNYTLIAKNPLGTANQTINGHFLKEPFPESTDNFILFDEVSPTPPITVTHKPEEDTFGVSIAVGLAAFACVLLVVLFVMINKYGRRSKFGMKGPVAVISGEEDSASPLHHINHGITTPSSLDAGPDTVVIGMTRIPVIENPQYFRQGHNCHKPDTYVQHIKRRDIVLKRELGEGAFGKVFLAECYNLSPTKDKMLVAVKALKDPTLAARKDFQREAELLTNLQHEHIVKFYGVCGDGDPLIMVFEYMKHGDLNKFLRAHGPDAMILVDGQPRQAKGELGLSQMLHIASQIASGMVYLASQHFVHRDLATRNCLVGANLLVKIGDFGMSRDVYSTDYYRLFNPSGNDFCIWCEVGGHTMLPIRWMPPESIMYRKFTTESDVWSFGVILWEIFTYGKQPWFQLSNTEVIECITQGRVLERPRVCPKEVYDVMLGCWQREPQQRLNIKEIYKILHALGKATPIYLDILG", "test": "Selectivity interaction (KinomeScan (DiscoverX)) EUB0000092b NTRK3", "conditions": "at 10 µM"}, "[7]": {"molecular_target": "T2, Mitogen-activated protein kinase kinase kinase 5 (Homo sapiens) (UniProt Q99683)", "T2 sequence (whole entry)": "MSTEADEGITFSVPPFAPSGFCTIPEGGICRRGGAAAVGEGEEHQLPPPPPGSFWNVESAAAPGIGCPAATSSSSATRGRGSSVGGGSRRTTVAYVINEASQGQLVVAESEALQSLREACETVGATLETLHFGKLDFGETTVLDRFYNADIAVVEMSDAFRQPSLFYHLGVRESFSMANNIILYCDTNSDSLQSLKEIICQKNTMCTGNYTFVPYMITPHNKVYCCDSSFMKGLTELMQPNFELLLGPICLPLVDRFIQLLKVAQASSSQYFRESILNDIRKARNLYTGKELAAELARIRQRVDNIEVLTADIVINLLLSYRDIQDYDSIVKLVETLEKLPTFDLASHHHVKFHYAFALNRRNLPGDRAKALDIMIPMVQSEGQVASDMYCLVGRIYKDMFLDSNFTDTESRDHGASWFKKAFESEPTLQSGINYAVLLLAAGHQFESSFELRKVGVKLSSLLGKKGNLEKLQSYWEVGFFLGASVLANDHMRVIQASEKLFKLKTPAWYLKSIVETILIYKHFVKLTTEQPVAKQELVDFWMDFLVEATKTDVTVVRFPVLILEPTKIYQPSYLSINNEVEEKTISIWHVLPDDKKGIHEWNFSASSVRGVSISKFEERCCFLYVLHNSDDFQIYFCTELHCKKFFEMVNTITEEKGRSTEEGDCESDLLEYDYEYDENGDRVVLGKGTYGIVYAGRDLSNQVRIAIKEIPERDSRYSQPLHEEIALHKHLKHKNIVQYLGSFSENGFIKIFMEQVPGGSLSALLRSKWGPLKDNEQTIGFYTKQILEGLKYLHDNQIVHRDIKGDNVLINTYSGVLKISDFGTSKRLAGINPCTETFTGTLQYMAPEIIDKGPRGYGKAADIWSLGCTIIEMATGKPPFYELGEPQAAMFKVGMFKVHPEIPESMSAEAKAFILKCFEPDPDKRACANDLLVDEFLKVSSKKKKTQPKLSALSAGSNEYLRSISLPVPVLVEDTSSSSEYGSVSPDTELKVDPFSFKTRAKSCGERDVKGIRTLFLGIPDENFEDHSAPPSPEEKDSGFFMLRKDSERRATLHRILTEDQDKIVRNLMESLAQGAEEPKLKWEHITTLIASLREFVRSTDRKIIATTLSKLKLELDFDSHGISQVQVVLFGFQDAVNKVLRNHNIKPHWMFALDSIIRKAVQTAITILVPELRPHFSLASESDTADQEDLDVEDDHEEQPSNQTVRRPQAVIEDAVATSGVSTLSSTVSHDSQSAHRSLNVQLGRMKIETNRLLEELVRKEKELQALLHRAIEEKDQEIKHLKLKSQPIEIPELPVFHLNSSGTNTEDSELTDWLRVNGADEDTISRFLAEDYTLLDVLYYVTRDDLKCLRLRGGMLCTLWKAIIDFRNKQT", "test": "Selectivity interaction (KinomeScan (DiscoverX)) EUB0000090b MAP3K5", "conditions": "at 1 µM"}},
  "data": [
    {"compound": "C=CC(=O)Nc1cc(-n2c(=O)ccc3cnc4ccc(-c5ccc(NS(C)(=O)=O)cc5)cc4c32)ccc1C", "values": [
      {"measurement": "% of control", "setting": "[1]; at 1 µM", "value": 41, "unit": "%"},
      {"measurement": "% of control", "setting": "[1]; at 10 µM", "value": 91, "unit": "%"}
    ]},
    {"compound": "CCC(=O)N1CC[C@H](Nc2ncnc3c2CN(c2cnc(OC)c(C(F)(F)F)c2)CC3)C1", "note": "[LENIOLISIB]", "values": [
      {"measurement": "IC50", "setting": "[2]", "value": "> 30", "unit": "µM"}
    ]},
    {"compound": "CC[C@@H]1[C@H](F)C(=O)N[C@@H]1COc1nccc2cc(C(N)=O)c(OC)cc12", "note": "[ZIMLOVISERTIB]", "values": [
      {"measurement": "% of inhibition", "setting": "[3]", "value": 3.25, "unit": "%"},
      {"measurement": "% of inhibition", "setting": "[4]", "value": 24.2, "unit": "%"},
      {"measurement": "% of inhibition", "setting": "[5]; at 0.01 µM", "value": -9.1, "unit": "%"},
      {"measurement": "% of inhibition", "setting": "[5]; at 0.04 µM", "value": 4.5, "unit": "%"},
      {"measurement": "% of inhibition", "setting": "[5]; at 0.2 µM", "value": -13.8, "unit": "%"},
      {"measurement": "% of inhibition", "setting": "[5]; at 1 µM", "value": 4.1, "unit": "%"},
      {"measurement": "% of inhibition", "setting": "[5]; at 5 µM", "value": -6.8, "unit": "%"}
    ]},
    {"compound": "CCC(=O)N1CCN(c2ccc(-n3c(=O)ccc4cnc5ccc(-c6cnc7ccccc7c6)cc5c43)cc2C(F)(F)F)CC1", "values": [
      {"measurement": "% of control", "setting": "[6]", "value": 100, "unit": "%"}
    ]},
    {"compound": "CN(C)C/C=C/C(=O)Nc1ccc(C(=O)N2CCCC(Nc3ncc(Cl)c(-c4c[nH]c5ccccc45)n3)C2)cc1", "note": "(configuration not stated)", "values": [
      {"measurement": "% of control", "setting": "[7]", "value": 88, "unit": "%"}
    ]}
  ]
}
